From paper PMC4801207, “Characterisation of Signalling by the Endogenous GPER1 (GPR30) Receptor in an Embryonic Mouse Hippocampal Cell Line (mHippoE-18)” (PLoS ONE, 2016)

What follows are compounds tested against T1, GPER1 (GPR30) (Mus musculus, UniProt Q8BMP4) (assay: cAMP accumulation, radiometric PKA binding assay, mHippoE-18 cells). Details: agonist; potentiation of 10 μM forskolin-stimulated cAMP, 100 μM IBMX, 20 min; endogenous receptor, no antagonist.
T1 construct: full-length endogenous receptor, native in mHippoE-18 immortalized embryonic mouse hippocampal cell line (CELLutions Biosystems); cells also express moderate ERalpha and ERbeta
T1 sequence (Q8BMP4 1-375): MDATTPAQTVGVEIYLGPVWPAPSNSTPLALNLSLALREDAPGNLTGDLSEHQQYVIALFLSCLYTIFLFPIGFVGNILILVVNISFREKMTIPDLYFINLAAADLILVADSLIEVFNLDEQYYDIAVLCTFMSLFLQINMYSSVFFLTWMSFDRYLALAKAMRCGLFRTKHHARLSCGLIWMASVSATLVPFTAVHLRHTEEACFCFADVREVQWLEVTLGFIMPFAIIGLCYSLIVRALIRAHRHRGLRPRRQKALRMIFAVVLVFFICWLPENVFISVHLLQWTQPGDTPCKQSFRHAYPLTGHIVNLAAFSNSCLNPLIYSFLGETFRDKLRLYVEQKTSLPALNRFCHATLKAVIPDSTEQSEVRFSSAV
Format: cell-based

| EC50 [nM] | Compound |
| --- | --- |
| 0.52 | CC(=O)c1ccc2c(c1)[C@H]1C=CC[C@H]1[C@@H](c1cc3c(cc1Br)OCO3)N2 (racemic) [G1] |
| 1.1 | C[C@]12CC[C@@H]3c4ccc(O)cc4CC[C@H]3[C@@H]1CC[C@@H]2O [17β-Estradiol] |
| 3.6 | C[C@]12CC[C@@H]3c4ccc(O)cc4C[C@@H](CCCCCCCCC[S+]([O-])CCCC(F)(F)C(F)(F)F)[C@H]3[C@@H]1CC[C@@H]2O (stereo partly drawn) [ICI 182,780, 7α, 17β-[9-[(4,4,5,5,5-Pentafluoropentyl)sulfinyl]nonyl]estra-1,3,5(10)-triene-3,17-diol] |
